Results taken from US20240116946A1 (Gilead Sciences, Inc., priority 2022, published 2024).
pEC50, pIC50: −log10 of the molar value. Where two headings read alike, the source gives them in different places.

What was measured:
[1] = target: recombinant SARS-CoV-2 Main protease (Mpro) (Severe acute respiratory syndrome coronavirus 2 (2019-nCoV) (SARS-CoV-2), UniProt P0DTD1); assay: Cov Mpro Biochemical IC50 Assay; conditions: read-out: MPro IC50
[2] = test system: SARS-CoV-2-NLuc; assay: microbe, parasite or virus in culture; format: cell-based, SARS Coronavirus 2
[3] = recombinant SARS-CoV-2 Mpro 7.5 nM, fluorogenic peptide substrate 40 μM
[4] = Severe acute respiratory syndrome coronavirus, 48 h, read-out: MPro EC50
[5] = Severe acute respiratory syndrome coronavirus, 48 h; read-out: MPro EC50
[6] = recombinant SARS-CoV-2 Mpro, fluorogenic peptide substrate

Compound | pIC50 [1, 3] | pEC50 [2, 4] | pEC50 [2, 5] | pIC50 [1, 6] | pEC50 ([2]; read-out: MPro EC50)
Cn1ncc2cncc(-n3c(=O)[nH]c4cc(-c5ccc(F)cc5Cl)sc4c3=O)c21 [Example 662] | 7.39 | 7.09 | – | – | –
COc1cc(-c2cc3c(s2)c(=O)n(-c2cncc4c(C)nn(C)c24)c(=O)n3CCC#N)c(Cl)cc1F [Example 979, 3-(6-(2-chloro-4-fluoro-5-methoxyphenyl)-3-(1,3-dimethyl-1H-pyrazolo[4,3-c]pyridin-7-yl)-2,4-dioxo-3,4-dihydrothieno[3,2-d]pyrimidin-1(2H)-yl)propanenitrile] | 8.43 | 8.51 | – | – | –
Cc1c(Cl)cncc1-n1c(=O)c2sc(-c3ccccc3C#N)cc2n(CCC#N)c1=O [Example 846] | 7.90 | – | 7.43 | – | –
COc1cc(-c2cc3c(s2)c(=O)n(-c2cncc4ccccc24)c(=O)n3Cc2ncn(C)n2)c(Cl)cc1F [Example 689] | 7.50 | 7.52 | – | – | –
COCc1cccc(Cl)c1-c1ccc2c(=O)n(-c3cncc4ccccc34)c(=O)[nH]c2c1 [Example 100] | – | 6.35 | – | 6.49 | –
COc1cc(-c2cc3c(s2)c(=O)n(-c2cncc4ccccc24)c(=O)n3CC#N)c(Cl)cc1F [Example 630, 2-[6-(2-chloro-4-fluoro-5-methoxy-phenyl)-3-(4-isoquinolyl)-2,4-dioxo-thieno[3,2-d]pyrimidin-1-yl]acetonitrile] | 8.20 | – | 8.03 | – | –
O=c1[nH]c2cc(-c3cc(OC(F)(F)F)ccc3Cl)ccc2c(=O)n1-c1cncc2ccccc12 [Example 181] | – | 6.36 | – | 5.91 | –
N#CCCn1c(=O)n(-c2cncc(CO)c2)c(=O)c2sc(-c3ccccc3C#N)cc21 [Example 1101] | 7.44 | < 6.00 | – | – | –
Cn1ncc2cncc(-n3c(=O)c4sc(-c5cc(Cl)ccc5Cl)cc4n(CCC#N)c3=O)c21 [Example 793] | 8.18 | 8.30 | – | – | –
N#Cc1ccccc1-c1cc(F)c2c(=O)n(-c3cncc4ccccc34)c(=O)[nH]c2c1 [Example 223] | – | – | 6.38 | 6.99 | –
COc1cc(-c2cc3[nH]c(=O)n(-c4cncc5cnn(C6CC6)c45)c(=O)c3s2)c(Cl)cc1F [Example 975, 6-(2-chloro-4-fluoro-5-methoxy-phenyl)-3-(1-cyclopropylpyrazolo[4,3-c]pyridin-7-yl)-1H-thieno[3,2-d]pyrimidine-2,4-dione] | 8.20 | 7.99 | – | – | –
COc1ccc(C#N)c(-c2cc3[nH]c(=O)n(-c4cncc5ccccc45)c(=O)c3s2)c1 [Example 532, 2-(3-(isoquinolin-4-yl)-2,4-dioxo-1,2,3,4-tetrahydrothieno[3,2-d]pyrimidin-6-yl)-4-methoxybenzonitrile] | > 8.58 | 7.76 | – | – | –
5-fluoro-2-[6-fluoro-3-(4-isoquinolyl)-2,4-dioxo-1H-quinazolin-7-yl]-4-methoxy-benzonitrile [Example 517] | 8.02 | – | – | – | 7.45
COc1ccc(Cl)c(-c2cc3[nH]c(=O)n(-c4cncc5nn(CC(F)(F)F)cc45)c(=O)c3s2)c1 [Example 501] | 7.83 | – | 7.03 | – | –
Cn1cnc(COc2cccc(Cl)c2-c2ccc3c(=O)n(-c4cncc5ccccc45)c(=O)[nH]c3c2)n1 [Example 88] | – | 6.20 | – | 6.63 | –
COc1ccc2cncc(-n3c(=O)[nH]c4cc(-c5c(Cl)cccc5-c5cn6ncnc6c6c5CCC6)sc4c3=O)c2c1 [Example 564] | 7.84 | 7.28 | – | – | –

Compound | pIC50 [1, 3] | pEC50 [2, 4] | pEC50 [2, 5] | pIC50 [1, 6] | pEC50 ([2]; read-out: MPro EC50)
COc1ccc(C#N)c(-c2cc3[nH]c(=O)n(-c4cncc5ccccc45)c(=O)c3cc2F)c1 (single isomer, unassigned) [Example 438, 2-(6-fluoro-3-(isoquinolin-4-yl)-2,4-dioxo-1,2,3,4-tetrahydroquinazolin-7-yl)-4-methoxybenzonitrile] | > 8.38 | – | – | – | > 7.94
COc1cc(-c2cc3[nH]c(=O)n(-c4cncc5ccccc45)c(=O)c3s2)c(C)cn1 [Example 719] | 6.44 | 6.03 | – | – | –
Cc1nn(C(C)(C)C)cc1-c1cccc(Cl)c1-c1ccc2c(=O)n(-c3cncc4ccccc34)c(=O)[nH]c2c1 [Example 274] | – | 7.02 | – | 7.08 | –
COc1ccc(C#N)c(-c2cc3[nH]c(=O)n(-c4cncc5cc(C(C)(C)O)sc45)c(=O)c3s2)c1 [Example 514] | 7.80 | 6.25 | – | – | –
O=C1NCc2ccc(-c3cccc(Cl)c3-c3ccc4c(=O)n(-c5cncc6ccccc56)c(=O)[nH]c4c3)cc21 [Example 236] | – | 6.64 | – | 7.06 | –
N#CCCn1c(=O)n(-c2cncc3ccccc23)c(=O)c2sc(-c3ccccc3C#N)cc21 (single isomer, unassigned) [Example 963, 2-(1-(2-cyanoethyl)-3-(isoquinolin-4-yl)-2,4-dioxo-1,2,3,4-tetrahydrothieno[3,2-d]pyrimidin-6-yl)benzonitrile] | 8.10 | – | – | – | 7.84
COc1cc(-c2cc3c(s2)c(=O)n(-c2cncc4ccccc24)c(=O)n3CCC#N)c(Cl)cc1F (single isomer, unassigned) [Example 637, 3-[6-(2-chloro-4-fluoro-5-methoxy-phenyl)-3-(4-isoquinolyl)-2,4-dioxo-thieno[3,2-d]pyrimidin-1-yl]propanenitrile] | 8.46 | – | – | – | 8.73
Cc1cc(-c2cccc(Cl)c2-c2ccc3c(=O)n(-c4cncc5ccccc45)c(=O)[nH]c3c2)ccc1C(N)=O [Example 244] | – | 7.39 | – | 7.74 | –
O=c1[nH]c2cc(-c3ccccc3Cl)sc2c(=O)n1-c1cncc2ccc(N3CC4(C3)CS(=O)(=O)C4)cc12 [Example 395] | 8.14 | 7.09 | – | – | –
O=C1C[C@@H](Nc2ccc3cncc(-n4c(=O)[nH]c5cc(-c6ccccc6Cl)sc5c4=O)c3c2)CN1 [Example 405] | 7.92 | 5.53 | – | – | –
COc1cc(-c2cc3c(s2)c(=O)n(-c2cncc4cccnc24)c(=O)n3CC#N)c(Cl)cc1F [Example 708] | 8.36 | 8.06 | – | – | –
O=c1[nH]c2cc(-c3ccccc3Cl)sc2c(=O)n1-c1cnccc1N1CCN(C2COC2)CC1 [Example 117, 6-(2-chlorophenyl)-3-(4-(4-(oxetan-3-yl)piperazin-1-yl)pyridin-3-yl)thieno[3,2-d]pyrimidine-2,4(1H,3H)-dione] | – | – | 6.20 | 6.81 | –
O=c1[nH]c2cc(-c3ccccc3Cl)sc2c(=O)n1-c1cncc2c1OCCC2 [Example 588] | 7.83 | 7.32 | – | – | –
Cc1c(C2CCOCC2)cncc1-n1c(=O)[nH]c2cc(-c3ccccc3Cl)sc2c1=O [Example 119, 6-(2-chlorophenyl)-3-(4-methyl-5-(tetrahydro-2H-pyran-4-yl)pyridin-3-yl)thieno[3,2-d]pyrimidine-2,4(1H,3H)-dione] | – | 5.56 | – | 6.41 | –
COc1cc(-c2cc3c(s2)c(=O)n(-c2cncc4cnn(C)c24)c(=O)n3CC2(C#N)CC2)c(Cl)cc1F [Example 643, 1-[[6-(2-chloro-4-fluoro-5-methoxy-phenyl)-3-(1-methylpyrazolo[4,3-c]pyridin-7-yl)-2,4-dioxo-thieno[3,2-d]pyrimidin-1-yl]methyl]cyclopropanecarbonitrile] | > 8.39 | – | 8.94 | – | –
